Results from patent EP0326329B1, “Quinazoline derivatives useful as insecticides” (Dow AgroSciences LLC, priority 1988, dated 1989).

Experiments:
Type in all cases: in vivo
[1] = system: Southern corn rootworm (Diabrotica undecimpuctata howardi Barber); test: Mite/insect screen, soil treatment (CRW); settings: Diabrotica, percent mortality, soil treatment, read-out: CRW RESULTS %; for mortality at 12 ppm: CRW rate 12.00 ppm; for mortality at 24 ppm: CRW rate 24.00 ppm
Outline: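 Five 2–3 instar larvae were placed on dry sandy soil with a presoaked corn seed after the soil had received 1 mL of compound solution and dried 6–12 h; cups were kept capped at 23°C. Mortality (%) and phytotoxicity were read after standard exposure. Formulation: acetone/alcohol with emulsifiers, water-diluted.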

[2] = system: Pyricularia oryzae (rice blast); settings: disease control rating, foliar spray, host rice; 400 ppm (+++ at 100 ppm)
[3] = system: Botrytis cinerea (gray mold); test: Greenhouse Test 1, foliar spray fungicide screen (GRAY MOLD), host grape berries; settings: disease control rating, 400 ppm (+++ at 100 ppm)
[4] = system: Pseudoperonospora cubensis (downy mildew); test: Greenhouse Test 1, foliar spray fungicide screen (DOWN MDEW), host squash; settings: disease control rating, 400 ppm (+++ at 100 ppm)
[5] = system: southern armyworm (Spodopetra eridania Cramer); test: Mite/insect screen, sprayed squash leaves (SAW); settings: Spodoptera eridania, percent mortality, read-out: SAW RESULTS %; for mortality at 200 ppm: spray rate 200 ppm; for mortality at 400 ppm: spray rate 400 ppm
Outline: (§1)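 Steps: formulate compound in acetone/alcohol 50:50 carrying emulsifiers; dilute with water; spray leaves until runoff on upper and lower surfaces; air-dry one hour; for armyworm, excise two […] leaves into a dish of larvae; after exposure, score mortality and plant injury.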

[6] = system: melon aphids (Aphis gossypii Glover); test: Mite/insect screen, sprayed squash cotyledons (MA); settings: Aphis gossypii, percent mortality, read-out: MA RESULTS %; for mortality at 200 ppm: spray rate 200 ppm; for mortality at 400 ppm: spray rate 400 ppm
Outline: as §1

[7] = system: Erysiphe graminis tritici (powdery mildew); test: Greenhouse Test 1, foliar spray fungicide screen (POWD MDEW), host wheat; settings: disease control rating, 400 ppm (+++ at 100 ppm)
[8] = system: Puccinia recondita tritici (leaf rust); test: Greenhouse Test 1, foliar spray fungicide screen (LEAF RUST), host wheat; settings: disease control rating, 400 ppm (+++ at 100 ppm)
[9] = system: Twospotted spider mites (Tetranychus urticae Koch); test: Mite/insect screen, sprayed squash cotyledons (SM); settings: Tetranychus urticae, percent mortality, read-out: SM RESULTS %; for mortality at 200 ppm: spray rate 200 ppm; for mortality at 400 ppm: spray rate 400 ppm
Outline: as §1

| Compound | mortality at 12 ppm [1] [%] | mortality at 24 ppm [1] [%] | RICE BLAST [2] | GRAY MOLD [3] | DOWN MDEW [4] | mortality at 200 ppm [5] [%] | mortality at 400 ppm [5] [%] | mortality at 200 ppm [6] [%] | mortality at 400 ppm [6] [%] | POWD MDEW [7] | LEAF RUST [8] | mortality at 200 ppm [9] [%] | mortality at 400 ppm [9] [%] |
| --- | --- | --- | --- | --- | --- | --- | --- | --- | --- | --- | --- | --- | --- |
| CCOc1ccc(CCOc2ncnc3c(F)cccc23)cc1 [Example 170, 4-[2-(4-ethoxyphenyl)ethoxy]-8-fluoroquinazoline] | 0 | 0 | +++ (+++ = 90-100% control at 100 ppm) | - (- = 0-19% control at 400 ppm) | +++ (+++ = 90-100% control at 100 ppm) | 0 | 100 | 80 | 100 | +++ (+++ = 90-100% control at 100 ppm) | +++ (+++ = 90-100% control at 100 ppm) | 20 | 100 |
| Cc1ccc(CCNc2ncnc3c(F)cccc23)cc1 [Example 77, 8-fluoro-N-[2-(4-methylphenyl)ethyl]-4-quinazolinamine] | 0 | 0 | ++ (++ = 90-100% control at 400 ppm) | - (- = 0-19% control at 400 ppm) | - (- = 0-19% control at 400 ppm) | 0 | 0 | 0 | 0 | - (- = 0-19% control at 400 ppm) | ++ (++ = 90-100% control at 400 ppm) | 0 | 0 |
| CC(CNc1ncnc2c(F)cccc12)c1ccc(Cl)cc1 (centres unmarked) [Example 17, N-[2-(4-chlorophenyl)propyl]-8-fluoro-4-quinazolinamine] |  | 0 | +++ (+++ = 90-100% control at 100 ppm) | - (- = 0-19% control at 400 ppm) | +++ (+++ = 90-100% control at 100 ppm) |  | 0 |  | 100 | ++ (++ = 90-100% control at 400 ppm) | +++ (+++ = 90-100% control at 100 ppm) |  | 100 |
| Fc1cccc2c(NCCc3ccc(Cl)cc3)ncnc12 [Example 78, 8-fluoro-N-[2-(4-chlorophenyl)ethyl]-4-quinazolinamine] | 0 | 100 | +++ (+++ = 90-100% control at 100 ppm) | - (- = 0-19% control at 400 ppm) | +++ (+++ = 90-100% control at 100 ppm) | 100 | 80 | 0 | 0 | + (+ = 20-89% control at 400 ppm) | +++ (+++ = 90-100% control at 100 ppm) | 0 | 0 |
| CC(C)c1ccc(CCOc2ncnc3ccccc23)cc1 [Example 88, 4-[2-[4-(i-propyl)phenyl]ethoxy]quinazoline] | 0 | 0 | +++ (+++ = 90-100% control at 100 ppm) | - (- = 0-19% control at 400 ppm) | +++ (+++ = 90-100% control at 100 ppm) | 0 | 100 | 100 | 0 | +++ (+++ = 90-100% control at 100 ppm) | +++ (+++ = 90-100% control at 100 ppm) | 100 | 0 |
| CC(COc1ncnc2ccccc12)c1ccc(-c2ccccc2)cc1 (centres unmarked) [Example 187, 4-[2-(1,1'-biphenyl)-4-ylpropoxy]quinazoline] | 0 | 0 | +++ (+++ = 90-100% control at 100 ppm) | - (- = 0-19% control at 400 ppm) | + (+ = 20-89% control at 400 ppm) | 0 | 0 | 0 | 0 | - (- = 0-19% control at 400 ppm) | + (+ = 20-89% control at 400 ppm) | 0 | 0 |
